Test results: patent US20220125882A1, “METHODS AND COMPOSITIONS FOR TREATMENT OF CANCER” (Enzychem Lifesciences Corporation, priority 2019, published 2022)
Where “and” joins values, the source holds several entries; their conditions need not be identical. Equal values may be shown once. Entries after “also recorded” stand apart in the source; their conditions may differ.

B1: G-CSF: granulocyte colony-stimulating factor used with neutrophils to co-stimulate MDA-MB-231 cells; form not specified (protein, UniProt P09919 31-207, looked up)
Granulocyte …: TPLGPASSLPQSFLLKCLEQVRKIQGDGAALQEKLVSECATYKLCHPEELVLLGHSLGIPWAPLSSCPSQALQLAGCLSQLHSGLFLYQGLLQALEGISPELGPTLDTLQLDVADFATTIWQQMEELGMAPALQPTQGAMPAFASAFQRRAGGVLVASHLQSFLEVSYRVLRHLAQP
B2: PEG-G-CSF: pegfilgrastim, a PEGylated form of filgrastim (recombinant human G-CSF) (protein, UniProt P09919 31-207, looked up)
Granulocyte …: B1 Granulocyte …
modifications: PEG, N-terminal methionine

Experiments:
[1] = tested on: 4T1 cell line; assay: 4T1 tumor-bearing mouse model: tumor size and weight on Day 8; format: in vivo, BALB/c mice; details: for % weight Increase: % increase (+) or decrease (−) of tumor weight over body weight compared to control; for Tumor Weight Increase: change of average tumor weight compared to control; for Tumor Weight Average / % weight Average: group average; for Tumor Weight No. 1 / % weight No. 1: individual mouse No. 1; for Tumor Weight No. 1: 4T1 tumor-bearing BALB/c mice; for Tumor Weight No. 2 / % weight No. 2: individual mouse No. 2; for Tumor Weight No. 3 / % weight No. 3: individual mouse No. 3; for Tumor Weight No. 4 / % weight No. 4: individual mouse No. 4; for Tumor Weight No. 5 / % weight No. 5: individual mouse No. 5; for % weight Average / % weight No. 1 / % weight No. 2 / % weight No. 3 / % weight No. 4 / % weight No. 5: tumor weight over body weight
Procedure: On Day 2 and Day 3, the mice were administered 10 mg/kg of gemcitabine twice. On Day 4, 3 μg/mouse of PEG-G-CSF (Pegfilgrastim) was administrated via subcutaneous injection to the mice once. On every day of the study, 50 mg/kg of EC-18 diluted with PBS was administrated orally to the mice. A total of 24 tumor-bearing mice were classified into 5 groups consisting of control group (4 mice, Control), G-CSF administration group (5 mice, PEG-G-CSF), gemcitabine administration group (5 mice, Gemcitabine), G-CSF and gemcitabine co-administration group (5 mice, Gem+PEG), and EC-18 co-administration group (5 mice, Gem+PEG+EC-18), as summarized in Table 1 and FIG. 1A.
On Day 8, all mice were sacrificed and their tumors removed. The size and weight of the tumors were measured.

[2] = tested on: SMAD2/3-SMAD4 complex; assay: Immunoprecipitation of Smad complex in MDA-MB-231; format: cell-based; details: TAN and G-CSF co-stimulation
Procedure: (§1) MDA-MB-231 and HL60 cells were obtained from the American Type Culture Collection (ATCC, Rockville, Md., USA). MDA-MB-231 cells were grown in DMEM medium (WELGENE, Seoul, Korea) containing 10% fetal bovine serum (HyClone, Waltham, Mass., USA), 1% antibiotics (100 mg/l streptomycin, 100 U/ml penicillin), and 0.4% 2-Mercaptoethanol (Sigma Aldrich, St. Louis, Mo., USA). HL60 cells were grown in DMEM medium containing 10% fetal bovine serum and 1% antibiotics (100 mg/l streptomycin, 100 U/ml penicillin). Cells were grown at 37° C. in a 5% CO2 atmosphere. To differentiate HL60 cells into neutrophil-like cells, cells were grown in medium with […] (Sigma Aldrich) for 5 days.
(§2) MDA-MB-231 cells treated with PLAG and stimulated to induce neutrophil and G-CSF co-stimulation for various times at 37° C. in a 5% CO2 atmosphere were lysed using ice-cold IP lysis buffer (25 mM Tris-HCl pH 7.4, 150 mM NaCl, 1% NP-40, 1 mM EDTA, 5% glycerol). Extracted proteins were incubated with Surebeads Protein G specific antibody bound magnetic beads (Bio-Rad, Hercules, Calif., USA). Beads were washed with PBS with Tween 20 (PBST) and target proteins eluted in 1× sample buffer and analyzed by Western blotting.

[3] = tested on: Snail; assay: PCR of EMT marker expression in MDA-MB-231: Snail; format: cell-based; details: for Snail PCR band intensity (relative intensity): MDA-MB-231, Neutrophil co-culture, relative to None = 1, Samples 1-3; for expression level of SNAIL: neutrophil and G-CSF co-stimulation group, with or without PLAG
Procedure: as §1
(§3) Total RNA was extracted using RiboEx (GeneAll biotechnology, Seoul, Korea) according to the manufacturer's instructions, and cDNA was generated using ReverseAids cDNA synthesis kit (Thermo Scientific, Waltham, Mass., USA) according to the manufacturer's instructions. PCR was performed with the following temperature profile: a pre-denaturation step of 10 min at 95° C., followed by 35 cycles of 95° C. for 30 sec, annealing temperature for 30 sec and 72° C. for 30 sec and a final exposure to 72° C. for 10 min. Specific primer sequence for amplification was Table 5.

[4] = tested on: IFN-γ; assay: IFN-γ ELISA of cell supernatants; format: cell-based; details: for IFN-γ ELISA (450 nm OD): Samples 1-3; for secretion of IFN-γ: TAN environment, PLAG treatment, or G-CSF co-stimulation vs neutrophil only group
Procedure: as §1
(§4) The levels of cytokine secretion in the cell supernatants or plasma were analyzed using an enzyme-linked immunosorbent assay (ELISA) specifically for cytokines from BD Bioscience according to the manufacturer's protocol. The absorbance was measured at 450 nm using an EMax Endpoint ELISA microplate reader (Molecular Devices Corporation, Sunnyvale, Calif., USA).

[5] = tested on: Smad proteins; assay: Smad protein activity by Western blotting in MDA-MB-231; format: cell-based; details: TAN and G-CSF co-stimulation
Procedure: as §1, §2

[6] = tested on: MDA-MB-231 breast cancer cells; assay: Wound healing assay (mobility), TAN / G-CSF co-culture; format: cell-based; details: for mobility of the cancer cells: G-CSF and neutrophil co-stimulation group, with or without PLAG
Procedure: as §1
MDA-MB-231 were seeded in 12 well plate with cover glass, and incubated to 100% confluence at well. After the incubation, make the wound cell monolayer on center of well. A treated PLAG and neutrophil and G-CSF co-stimulation for indicate time. After treatment the indicated time and dose at 37° C. in a 5% CO2 atmosphere, the cells were fixed with 3.7% formaldehyde for 20 min and permeabilized with 0.2% Triton X-100 for 20 min and stained with 0.1% Phalloidin-FITC for 40 min. Fluorescence was detected by confocal (Carl Zeiss, Thornwood, N.Y., USA).

[7] = tested on: N-cadherin; assay: PCR of EMT marker expression in MDA-MB-231: N-cadherin; format: cell-based; details: for N-cadherin PCR band intensity (relative intensity): MDA-MB-231, Neutrophil co-culture, relative to None = 1, Samples 1-3; for expression level of NCAD: neutrophil and G-CSF co-stimulation group, with or without PLAG
Procedure: as §1, §3

[8] = tested on: Vimentin; assay: PCR of EMT marker expression in MDA-MB-231: Vimentin; format: cell-based; details: for Vimentin PCR band intensity (relative intensity): MDA-MB-231, Neutrophil co-culture, relative to None = 1, Samples 1-3; for expression level of Vimentin: neutrophil and G-CSF co-stimulation group, with or without PLAG
Procedure: as §1, §3

[9] = tested on: TGF-β; assay: TGF-β ELISA of cell supernatants; format: cell-based; details: for TGF-β ELISA (450 nm OD): Samples 1-3; for secretion level of TGF-β: TAN and G-CSF costimulation environment, with or without PLAG
Procedure: as §1, §4

[10] = tested on: SMAD2/3; assay: Confocal immunofluorescence of Smad nucleus translocation in MDA-MB-231; format: cell-based; details: TAN and G-CSF co-stimulation
Procedure: as §1
MDA-MB-231 cells were seeded in 12 well plate with cover glass, and incubated to 60% confluence at well. After the incubation, treated PLAG and neutrophil and G-CSF co-stimulation for indicate time. After treatment the indicated time at 37° C. in a 5% CO2 atmosphere, the cells were fixed with 3.7% formaldehyde for 20 min and permeabilized with 0.2% Triton X-100 for 20 min for staining. Cells were washed with PBST twice and reacted with specific antibody (SMAD2/3) for over-night at 4° C. Cells were washed with PBST twice and reacted secondary antibody. For nucleus detection, it stained with 1% Hoechst33342 for 20 min. Fluorescence was detected by confocal (Carl Zeiss, Thornwood, N.Y., USA).

[11] = tested on: MDA-MB-231 breast cancer cells; assay: Transwell invasion assay (MTT readout); format: cell-based; details: for transwell invasion of the cancer cells: G-CSF and neutrophil co-stimulation group, with or without PLAG; for Invasive cell count (MTT assay, % transform): MDA-MB-231, Samples 1-3
Procedure: as §1
Quantitative macrophage chemoattraction assays were performed using a modified Boyden chamber (SPL lifescience, Seoul, Korea) with 8.0-μm pore polycarbonate membrane inserts with matrigel-coated in 24-well plates. The lower chamber was filled with apoptotic neutrophils for chemoattraction. The MDA-MB-231 cells (5×10^4 cells/ml) in serum-free medium were added into the upper chamber and treated with PLAG. The cells were allowed to chemoattraction (Neutrophil co-culture supernatant) for indicate times at 37° C. in a 5% CO2 atmosphere. The non-chemoattracted cells were removed from the upper surface of the membrane by scraping with a cotton swab, and the chemoattracted cells were calculate by MTT assay.

| Molecule | % weight Increase [1] | Tumor Weight Increase ([1]; Day 8) | Tumor Weight Average ([1]; Day 8) | Tumor Weight No. 1 ([1]; Day 8) | Tumor Weight No. 2 ([1]; Day 8) | Tumor Weight No. 3 ([1]; Day 8) | Tumor Weight No. 4 ([1]; Day 8) | Tumor Weight No. 5 ([1]; Day 8) | % weight Average ([1]; Day 8) | % weight No. 1 ([1]; Day 8) | % weight No. 2 ([1]; Day 8) | % weight No. 3 ([1]; Day 8) | % weight No. 4 ([1]; Day 8) | % weight No. 5 ([1]; Day 8) | Snail PCR band intensity (relative intensity) [3] | expression level of SNAIL [3] | IFN-γ ELISA (450 nm OD) ([4]; Neutrophil co-culture) | secretion of IFN-γ [4] | mobility of the cancer cells [6] | N-cadherin PCR band intensity (relative intensity) [7] | further results |
| --- | --- | --- | --- | --- | --- | --- | --- | --- | --- | --- | --- | --- | --- | --- | --- | --- | --- | --- | --- | --- | --- |
| Nc1ccn([C@@H]2O[C@H](CO)[C@@H](O)C2(F)F)c(=O)n1 [Gemcitabine, gemcitabine, reference compound] | −22.6% | −25.0% | 24 ± 12 ×0.01 g | 38 ×0.01 g | 9 ×0.01 g | 32 ×0.01 g | 27 ×0.01 g | 14 ×0.01 g | 0.97 ± 0.51% | 1.55% | 0.36% | 1.32% | 1.08% | 0.54% | – | – | – | – | – | – | tumor weight decreased compared to control ([1]; Day 8): about 25% |
| CCCCC/C=C\C/C=C\CCCCCCCC(=O)OC(COC(C)=O)COC(=O)CCCCCCCCCCCCCCC (stereo not shown) [PLAG, 1-palmitoyl-2-linoleoyl-3-acetylglycerol] | – | – | – | – | – | – | – | – | – | – | – | – | – | – | 0.531 and 0.749 and 0.527 | expression was decreased | 0.181 OD and 0.158 OD and 0.164 OD | significantly increased | inhibited the cancer cell abnormal-metastasis | 0.723 and 0.747 and 0.732 | formation of the SMAD2/3-SMAD4 complex [2]: decreases; IFN-γ ELISA (450 nm OD) ([4]; without neutrophil): 0.144 OD and 0.149 OD and 0.156 OD; SMAD activity (TGF-β signal pathway) [5]: decreased; mobility of MDA-MB-231 cells ([6]; neutrophil-stimulated): mobility decreased; expression level of NCAD [7]: expression was decreased; Vimentin PCR band intensity (relative intensity) [8]: 0.501 and 0.512 and 0.504; expression level of Vimentin [8]: expression was decreased; TGF-β ELISA (450 nm OD) ([9]; Neutrophil co-culture): 0.484 OD and 0.476 OD and 0.474 OD; secretion level of TGF-β [9]: did not significantly decrease; also recorded: did not change; TGF-β ELISA (450 nm OD) ([9]; without neutrophil): 0.248 OD and 0.287 OD and 0.208 OD; nucleus translocation of SMAD2/3 and SMAD4 [10]: decreased; transwell invasion of the cancer cells [11]: inhibited the cancer cell abnormal-metastasis; Invasive cell count (MTT assay, % transform) ([11]; Neutrophil co-culture): 212.500% and 235.417% and 216.667%; Invasive cell count (MTT assay, % transform) ([11]; without neutrophil): 89.583% and 104.167% and 102.083%; transwell invasion of MDA-MB-231 cells ([11]; neutrophil-stimulated culture sup.): invasion of cancer cells is decreased |
| B1 | – | – | – | – | – | – | – | – | – | – | – | – | – | – | 2.4 and 2.781 and 1.635 | increased | 0.139 OD and 0.102 OD and 0.094 OD | significantly lower | further increased | 4.517 and 4.511 and 5.214 | expression level of NCAD [7]: increased; Vimentin PCR band intensity (relative intensity) [8]: 1.832 and 1.854 and 1.867; expression level of Vimentin [8]: increased; TGF-β ELISA (450 nm OD) ([9]; Neutrophil co-culture): 0.439 OD and 0.446 OD and 0.414 OD; secretion level of TGF-β [9]: increased; transwell invasion of the cancer cells [11]: further increased; Invasive cell count (MTT assay, % transform) ([11]; Neutrophil co-culture): 366.667% and 352.083% and 383.333% |
| B2 | +22.7% | +19.4% | 38 ± 11 ×0.01 g | 47 ×0.01 g | 30 ×0.01 g | 53 ×0.01 g | 30 ×0.01 g | 31 ×0.01 g | 1.54 ± 0.52% | 2.02% | 1.12% | 2.20% | 1.20% | 1.17% | – | – | – | – | – | – | tumor weight increased compared to control ([1]; Day 8): about 19.4% |
